Assay results taken from patent US6949353B2, “Capping enzyme of flavivirus and utilization of this protein in a process to test drugs with antiviral properties” (priority 2001, dated 2005).

Key:
[1] = biological target: T1, CEF (Capping Enzyme of Flavivirus) (Dengue virus type 2, UniProt P14340); test: UV-crosslinking of α-32P-GTP (or α-32P-ATP) to CEF, direct binding; set-up: species or system Dengue virus type 2 (New Guinea)
T1 construct: is a thirty-three kDa N-terminal domain of the RNA-dependent RNA polymerase; made in house; host or cells: E. coli (vector pQE30)
Experimental: In the drawings, as noted above, FIGS. 1A and 1B are a pair of photographs of gel electrophoresis. […] 2 μg of CEF was incubated with 50 μM (1 μCi) of either α-^32P-GTP (lane 1, 2, 5, 6) or α-^32P-ATP (lanes 3, 4) in 50 mM Tris pH 7.6, 5 mM DTT in the presence (lane 1, 3-6)) or absence (lane 2) of 5 mM Mg^2+. The sample was cross-linked using UV irradiation (254 nm), boiled for 5 min, and subjected to denaturing gel electrophoresis. Products were analyzed and quantified using photostimulable plates and a FujiImager. Bacteriophage T4 DNA ligase served as a positive control (lane 5). The F25A variant of CEF was purified under the same conditions as those of wild-type CEF. Upper panels show the comassie-blue stained gels, and lower panels the corresponding autoradiographic analysis. […] The mixture was boiled for 5 min, subjected to denaturing gel electrophoresis, and the gel analyzed and quantified as in panel A. Upper panels show the comassie-blue stained gels, and lower panels the corresponding autoradiographic analysis. […]
The binding affinity constant of GTP to CEF can be easily determined using a fixed concentration of CEF and increasing concentrations of radiolabeled GTP as described in FIG. 1A. […]

[2] = biological target: T1, CEF (Capping Enzyme of Flavivirus); test: Competition with α-32P-GTP for covalent binding to CEF (no UV, gel electrophoresis/autoradiography); set-up: species or system Dengue virus type 2 (New Guinea); details: 0-1000 μM competitor, 10 min before α-32P-GTP, with magnesium
Experimental: In the drawings, as noted above, FIGS. 1A and 1B are a pair of photographs of gel electrophoresis. […] 2 μg of CEF was incubated with 50 μM (1 μCi) of either α-^32P-GTP (lane 1, 2, 5, 6) or α-^32P-ATP (lanes 3, 4) in 50 mM Tris pH 7.6, 5 mM DTT in the presence (lane 1, 3-6)) or absence (lane 2) of 5 mM Mg^2+. The sample was cross-linked using UV irradiation (254 nm), boiled for 5 min, and subjected to denaturing gel electrophoresis. Products were analyzed and quantified using photostimulable plates and a FujiImager. Bacteriophage T4 DNA ligase served as a positive control (lane 5). The F25A variant of CEF was purified under the same conditions as those of wild-type CEF. Upper panels show the comassie-blue stained gels, and lower panels the corresponding autoradiographic analysis. […] CEF was incubated during 10 min with increasing concentrations of Ribavirin 5′-triphosphate (0-50-250-500-750-1000 μM, lanes 1- to 6, respectively) before addition of α-^32P-GTP to the reaction mixture and further incubation for 20 min. The mixture was boiled for 5 min, subjected to denaturing gel electrophoresis, and the gel analyzed and quantified as in panel A. Upper panels show the comassie-blue stained gels, and lower panels the corresponding autoradiographic analysis. Ribavirin: Ribavirin 5′-triphosphate; Lig: Bacteriophage T4 DNA ligase. […]

[3] = biological target: T1, CEF (Capping Enzyme of Flavivirus); test: Competition with radiolabeled GTP for CEF, CEF-GTP complex assayed by UV-crosslinking; format: binding, Dengue virus type 2 (New Guinea)
Experimental: The invention can also be useful in methods for determining the inhibitory power of a biologically active compound acting as a competitive inhibitor of GTP comprising: • a) incubating CEF with radiolabeled GTP, • b) adding selected different concentrations of the biologically active compound, • c) assaying resulting radiolabeled CEF-GTP complex produced from the incubation, • d) quantifying an amount of radiolabeled CEF-GTP complex produced from the assay, • e) comparing the amount to a binding affinity constant of GTP to CEF, and • f) determining the inhibitory power of the biologically active compound.
More particularly, the incubating step in the methods of the invention is conducted at about 52 μM of GTP. Selected different concentrations of GTP are about 0 μM, about 10 μM, about 20 μM, about 50 μM, about 100 μM, about 200 μM, about 300 μM, about 500 μM, and about 800 μM. Assaying in the methods of the invention comprises UV-crosslinking of α-^32P-GTP to CEF.
The CEF-GTP complex is then assayed using UV-crosslinking as described above. If acyclovir 5′triphosphate competes with radiolabeled GTP for the CEF active-site, acyclovir 5′triphosphate will replace GTP in the active-site.

Nc1nc2c(ncn2[C@@H]2O[C@H](COP(=O)(O)OP(=O)(O)OP(=O)(O)O)[C@@H](O)[C@H]2O)c(=O)[nH]1 [GTP]
Kd ([1]; fixed CEF, increasing radiolabeled GTP, hyperbolic saturation, read-out: binding affinity constant Kd of GTP to CEF): 52 µM

NC(=O)c1ncn([C@@H]2O[C@H](COP(=O)(O)OP(=O)(O)OP(=O)(O)O)[C@@H](O)[C@H]2O)n1 [Ribavirin 5′-triphosphate]
effect on GTP-binding to CEF [2]: able to decrease GTP-binding to CEP

Nc1nc2c(ncn2COCCOP(=O)(O)OP(=O)(O)OP(=O)(O)O)c(=O)[nH]1 [acyclovir 5′-triphosphate]
Kd ([3]; CEF first incubated with about 52 μM GTP, increasing competitor, read-out: relative binding affinity constant for binding to CEF): ~79 µM | inhibition of the CEF enzyme (in words) ([3]; CEF-acyclovir 5′-triphosphate binding assay): good inhibitor of the CEF enzyme

Nc1ncnc2c1ncn2[C@@H]1O[C@H](COP(=O)(O)OP(=O)(O)OP(=O)(O)O)[C@@H](O)[C@H]1O [α-^32P-ATP]
labeling of CEF by radiolabeled nucleotide after UV irradiation ([1]; 50 μM nucleotide, 2 μg CEF, UV 254 nm): unable to label CEF significantly
